B1: TpoR.Δ60: SEQ ID NO: 2; TpoR with C-terminal truncation of the cytoplasmic domain (protein)
chain: MPSWALFMVTSCLLLAPQNLAQVSSQDVSLLASDSEPLKCFSRTFEDLTCFWDEEEAAPSGTYQLLYAYPREKPRACPLSSQSMPHFGTRYVCQFPDQEEVRLFFPLHLWVKNVFLNQTRTQRVLFVDSVGLPAPPSIIKAMGGSQPGELQISWEEPAPEISDFLRYELRYGPRDPKNSTGPTVIQLIATETCCPALQRPHSASALDQSPCAQPTMPWQDGPKQTSPSREASALTAEGGSCLISGLQPGNSYWLQLRSEPDGISLGGSWGSWSLPVTVDLPGDAVALGLQCFTLDLKNVTCQWQQQDHASSQGFFYHSRARCCPRDRYPIWENCEEEEKTNPGLQTPQFSRCHFKSRNDSIIHILVEVTTAPGTVHSYLGSPFWIHQAVRLPTPNLHWREISSGHLELEWQHPSSWAAQETCYQLRYTGEGHQDWKVLEPPLGARGGTLELRPRSRYRLQLRARLNGPTYQGPWSSWSDPTRVETATETAWISLVTALHLVLGLSAVLGLLLLRWQFPAHYRRLRHALWPSLPDLHRVLGQYLRDTAALSPPKATVSDTCEEVEPSLLEILPKSSERTPL
modifications: TpoR.delta60; MISC_FEATURE (1)..(491): TpoR Extracellular Domain; MISC_FEATURE (492)..(513): TpoR Transmembrane Domain; MISC_FEATURE (514)..(580): TpoR Cytoplasmic Domain with C-terminal Truncation
B2: IL-12: IL-12 as a control (protein, UniProt P29459 23-219; P29460 23-328, looked up)
Interleukin-12 subunit alpha: RNLPVATPDPGMFPCLHHSQNLLRAVSNMLQKARQTLEFYPCTSEEIDHEDITKDKTSTVEACLPLELTKNESCLNSRETSFITNGSCLASRKTSFMMALCLSSIYEDLKMYQVEFKTMNAKLLMDPKRQIFLDQNMLAVIDELMQALNFNSETVPQKSSLEEPDFYKTKIKLCILLHAFRIRAVTIDRVMSYLNAS
Interleukin-12 subunit beta: IWELKKDVYVVELDWYPDAPGEMVVLTCDTPEEDGITWTLDQSSEVLGSGKTLTIQVKEFGDAGQYTCHKGGEVLSHSLLLLHKKEDGIWSTDILKDQKEPKNKTFLRCEAKNYSGRFTCWWLTTISTDLTFSVKSSRGSSDPQGVTCGAATLSAERVRGDNKEYEYSVECQEDSACPAAEESLPIEVMVDAVHKLKYENYTSSFFIRDIIKPDPPKNLQLKPLKNSRQVEVSWEYPDTWSTPHSYFSLTFCVQVQGKSKREKKDRVFTDKTSATVICRKNASISVRAQDRYYSSSWSEWASVPCS
B3: TpoR.ITAM1: SEQ ID NO: 10; TpoR fused to ITAM1 cytoplasmic domain (protein)
chain: MPSWALFMVTSCLLLAPQNLAQVSSQDVSLLASDSEPLKCFSRTFEDLTCFWDEEEAAPSGTYQLLYAYPREKPRACPLSSQSMPHFGTRYVCQFPDQEEVRLFFPLHLWVKNVFLNQTRTQRVLFVDSVGLPAPPSIIKAMGGSQPGELQISWEEPAPEISDFLRYELRYGPRDPKNSTGPTVIQLIATETCCPALQRPHSASALDQSPCAQPTMPWQDGPKQTSPSREASALTAEGGSCLISGLQPGNSYWLQLRSEPDGISLGGSWGSWSLPVTVDLPGDAVALGLQCFTLDLKNVTCQWQQQDHASSQGFFYHSRARCCPRDRYPIWENCEEEEKTNPGLQTPQFSRCHFKSRNDSIIHILVEVTTAPGTVHSYLGSPFWIHQAVRLPTPNLHWREISSGHLELEWQHPSSWAAQETCYQLRYTGEGHQDWKVLEPPLGARGGTLELRPRSRYRLQLRARLNGPTYQGPWSSWSDPTRVETATETAWISLVTALHLVLGLSAVLGLLLLRWQFPAHYRRLRHALWPSLPDLHRVLGQYLRDTAALSPPKATVSDTCEEVEPSLLEILPKSSERTPLPLCSSQAQMDYRRLQPSCLGTMPLSVCPPMAESGSCCTTHIANHSYLPLSYWQQPRVKFSRSADAPAYQQGQNQLYNELNLGRREEYDVLDKRRGR
modifications: TpoR-ITAM1; MISC_FEATURE (1)..(491): TpoR Extracellular Domain; MISC_FEATURE (492)..(513): TpoR Transmembrane Domain; MISC_FEATURE (514)..(635): TpoR Cytoplasmic Domain; MISC_FEATURE (636)..(676): ITAM1 Cytoplasmic Domain

Key:
[1] = test system: primary human T-cells; test: Eltrombopag and IL-2 on CrGFR transduced primary human T-cells, up to 21 days; type: cell-based; details: after 21 days, x3 donors, Eltrombopag
Protocol: FIGS. 6A-6B—Analysis of Eltrombopag and IL-2 on primary human T-cells from Donor 1. Primary human T-cells from donor 1 were transduced with the WT TpoR or variant CrGFR and incubated in the presence of IL2 or Eltrombopag. Cells were removed at time points up to 21 days and the proportion of cells expressing the receptor assessed using PE conjugated anti-CD110 antibodies and a MACSQuant analyser.
FIGS. 7A-7B—Analysis of Eltrombopag and IL-2 on primary human T-cells from Donor 2. Primary human T-cells from donor 2 were transduced with the WT TpoR or variant CrGFR and incubated in the presence of IL2 or Eltrombopag. Cells were removed at time points up to 21 days and the proportion of cells expressing the receptor assessed using PE conjugated anti-CD110 antibodies and a MACSQuant analyser.
FIGS. 8A-8B—Analysis of Eltrombopag and IL-2 on primary human T-cells from Donor 3. Primary human T-cells from donor 3 were transduced with the WT TpoR or variant CrGFR and incubated in the presence of IL2 or Eltrombopag. Cells were removed at time points up to 21 days and the proportion of cells expressing the receptor assessed using PE conjugated anti-CD110 antibodies and a MACSQuant analyser.
FIGS. 9A-9B—Selection of optimal CrGFRs for next round of analysis. Flow cytometry plots showing expression of CrGFRs in ×3 donor primary human T-cells after 21 days incubation in Eltrombopag. The receptors TpoR.CD40, TpoR.IL2rγ, TpoR.ITAM1, TpoR.A60, TpoR.LMP1-cyto and TpoR.TpoR-cyto.LMP1-cyto were chosen for future comparison with the wt TpoR.
Peripheral blood mononuclear cells were isolated from normal healthy donors before activation for 24 hours with T-cell activation and expansion beads (Invitrogen) according to the manufacturer's instructions before addition of lentiviral supernatants.
Following expansion cells were washed excessively to remove any exogenous IL2 and plated into 96-well U-bottom plates. Cells were supplemented with IL2 (Proleukin) or Eltrombopag (Stratech Scientific, Suffolk, UK). At various time points thereafter cells were either stained with a 1:400 dilution of eFlor-450 fixable viability dye (eBioscience, UK) and counted directly from the wells using a MACSQuant Cytometer, or were stained with DRAQ7 viability dye plus phycoerythrin conjugated anti-CD110 antibodies (Miltenyi Biotec, UK) and analysed using a MACSQuant cytomter. Cell viability and/or transduction level was then analysed using MACSQuantify software (Miltenyi Biotec, UK).
Next Applicants took these receptors and expressed them in primary human T-cells and exposed these cells to IL-2 or Eltrombopag. Three donor primary human T-cell populations were isolated from buffy coats and transduced with the indicated lentiviral constructs in the presence of CD3/CD28 Dynabeads. Following expansion the cells were incubated with IL-2 or Eltrombopag. Applicants saw an increase in expansion/survival of T-cells with some of the receptors in some of the donors. […] This narrowed Applicants' panel of receptors to analyse further to: TpoR.CD40, TpOR.IL2rγ, TpoR.ITAM1, TpOR.LMP1-cyt, and TpoR.TpoR-cyt-LMP1-cyt.

[2] = test system: phospho-STAT5; test: Induction of pSTAT5 in CrGFR expressing T-cells; type: cell-based, human; details: CrGFR expressing T-cells from 4 donors treated for four hours
Protocol: FIG. 15—Induction of pSTAT by chimeric recombinant growth factor receptors. Primary human T-cells were isolated and transduced with the indicated CrGFR. Cells were enriched for CrGFR expression using Miltenyi MACS technology and expanded via polyclonal stimulation. The enriched cells were stimulated for 4 h with either media alone (RPMI), IL2, IL12, Tpo or Eltrombopag (Elt) before methanol fixation and intracellular staining with antibodies towards phospho-STAT5.
Finally, Applicants validated the signalling potential of the novel CrGFR by conducting phospho STAT analysis upon treatment of CrGFR expressing T-cells with media, cytokine or drug. To this end T-cells from 4 donors were transduced with either the wt TpoR, TpoR. CD40 or TpoR.IL2rγ, enriched for CrGFR expression using paramagnetic bead selection protocols and then expanded using polyclonal stimulation. The cells were treated for four hours with media alone (RPMI), IL-2, Tpo or Eltrombopag (Elt) before methanol fixation, permeabilization and analysis using pSTAT specific antibodies. STAT molecules are the key drivers of cell signalling upon cytokine activation of cells, pSTAT5 in particular is key to IL-2 activity.

[3] = test system: primary human T-cells; test: Eltrombopag and IL-2 on CrGFR sorted (CD110+) primary human T-cells, up to 7 days; type: cell-based; details: second donor (FIG. 12)
Protocol: FIG. 10—Analysis of Eltrombopag and IL-2 on CrGFR sorted primary human T-cells from Donor 4. Primary human T-cells from donor 4 were transduced with the WT TpoR or variant CrGFR, and enriched for expression by Miltenyi MACS technology selected for and incubated in the presence of IL2 or Eltrombopag. Cells were removed at time points up to 7 days and the number of cells expressing the receptor assessed using PE conjugated anti-CD110 antibodies, DRAQ7 viability dye and a MACSQuant analyser.
FIG. 11—Analysis of Eltrombopag and IL-2 on CrGFR sorted primary human T-cells from Donor 5. Primary human T-cells from donor 5 were transduced with the WT TpoR or variant CrGFR, and enriched for expression by Miltenyi MACS technology selected for and incubated in the presence of IL2 or Eltrombopag. Cells were removed at time points up to 7 days and the number of cells expressing the receptor assessed using PE conjugated anti-CD110 antibodies, DRAQ7 viability dye and a MACSQuant analyser.
FIG. 12—Analysis of Eltrombopag and IL-2 on CrGFR sorted primary human T-cells from Donor 6. Primary human T-cells from donor 6 were transduced with the WT TpoR or variant CrGFR, and enriched for expression by Miltenyi MACS technology selected for and incubated in the presence of IL2 or Eltrombopag. Cells were removed at time points up to 7 days and the number of cells expressing the receptor assessed using PE conjugated anti-CD110 antibodies, DRAQ7 viability dye and a MACSQuant analyser.
Paramagnetic bead sorts were conducted as per the manufacturers' instructions using either anti-PE microbeads (Miltenyi Biotec or StemCell Technologies), or T-cell isolation beads (17951: StemCell Technologies).
Next Applicants repeated the experiment but sorted the CrGFR+ cells using CD110+ selection by paramagnetic bead selection using the receptors identified from the first round of selections (FIGS. 10, 11 and 12). Applicants observed enhanced survival of T-cells engrafted with the majority of the CrGFR in all three donors. In particular Applicants saw expansion of WT-TpoR, TpOR.CD40, TpOR.IL2rγ and TpoR.LMP1-cyto cells in the second donor (FIG. 12) above that with media alone.

Molecule	proportion of viable cells with a distinct population of CD110+ cells [1]	induction of pSTAT5 by cytokine or drug [2]	expansion of CrGFR cells above that with media alone [3]
TpoR.TpoR-cyt-LMP1-cyt: SEQ ID NO: 11; TpoR with TpoR cytoplasmic domain fused to LMP-1 cytoplasmic domain	good proportion of viable cells with a distinct population of CD110+ cells	–	–
Tpo: thrombopoietin (Tpo), native ligand of TpoR	–	showed induction of STAT5 activity	–
TpoR.LMP1-cyt: SEQ ID NO: 12; TpoR EC and TM domain fused to LMP-1 cytoplasmic domain	good proportion of viable cells with a distinct population of CD110+ cells	–	expansion
B1	looked good	–	–
B2	–	unable to induce STAT5 activation	–
B3	good proportion of viable cells with a distinct population of CD110+ cells	–	–
